Source: publication PMC8151276, “An Integrated Approach toward NanoBRET Tracers for Analysis of GPCR Ligand Engagement” (Molecules, 2021)

How the values were obtained:
[1] = tested on: alpha-Adrenergic receptors; experiment: Competitive displacement of Clozapine-a-2-NB590 by unmodified scaffold (NanoBRET); type: binding, human; conditions: for Interaction verified via competitive displacement of tracer: tracer Clozapine-a-2-NB590, alpha-Adrenergic receptors; for NanoBRET Fold Response, other tracers/XAC (unmodified): displaced by unmodified XAC
Description: Finally, we opted to compare the machine learning predictions for the 17 scaffolds to the empirical NanoBRET evaluations across 36 GPCR families investigated by both strategies (Figure 7). […] At the same time, empirical NanoBRET results for each scaffold were consolidated to include results for all relevant fluorescent tracer candidates screened at either 1 μM or 0.1 μM tracer concentrations. […] These additional verifications were incorporated to the comparative analysis and are also included in the compiled screening results (Supplementary Materials Excel spreadsheet).

[2] = tested on: 5-Hydroxytryptamine receptors; experiment: as above; type: binding, human; conditions: tracer Clozapine-a-2-NB590
Excerpt: (§1) Finally, we opted to compare the machine learning predictions for the 17 scaffolds to the empirical NanoBRET evaluations across 36 GPCR families investigated by both strategies (Figure 7). The highest correlation between model-predicted and NanoBRET-confirmed interactions was found using minimal thresholds of ≥4% classification probability and ≥1.5-fold response, respectively (Figure S11). These thresholds provided the best balance between model accuracy and a low percentage of false predictions. Accordingly, machine learning predictions for all unmodified scaffolds were compiled (Figure S6) and those above the minimum 4% probability threshold were classified as positive interactions (Figure 7A). At the same time, empirical NanoBRET results for each scaffold were consolidated to include results for all relevant fluorescent tracer candidates screened at either 1 μM or 0.1 μM tracer concentrations. […] One caveat comparing model predictions to empirical NanoBRET evaluations is their use of unmodified versus fluorescently modified scaffolds, respectively. Therefore, model predictions not verified by BRET could in part be the result of fluorophore interference with binding interactions. […]

Dopamine receptors = experiment: as above; type: binding, human; conditions: tracer Clozapine-a-2-NB590
Excerpt: as §1

ADRB1 = target: T1, ADRB1 (Homo sapiens, UniProt P08588); experiment: NanoBRET screen HiBiT-ADRB1 in HEK293; type: binding; conditions: ADRB1
T1 construct: purchased Promega (in-house HiBiT-GPCR construct library, NanoBRET)

ADRB2 = target: T2, ADRB2 (Homo sapiens, UniProt P07550); experiment: NanoBRET screen HiBiT-ADRB2 in HEK293; type: binding; conditions: ADRB2, other tracers/Quetiapine (unmodified)
T2 construct: purchased Promega (in-house HiBiT-GPCR construct library, NanoBRET)
Description: (§2) Each tracer candidate was screened across the entire library of HiBiT-GPCR constructs using NanoBRET as the detection modality. As depicted in Figure 4A, the specificity of interactions was evaluated through decrease in BRET due to competitive displacement of a bound tracer by excess parental compound. Each tracer was analyzed for binding to each HiBiT-GPCR fusion in the absence and in the presence of competing parental compound. Briefly, HEK293 cells were transfected with HiBiT-GPCR constructs diluted into promoterless DNA to reduce expression and maximize translocation to the cell surface. Each tracer candidate was then screened at concentrations of 1 μM and 0.1 μM across cells expressing these fusions. Cells were treated for 1.5 h with tracer either alone or in the presence of 20 μM competing parental compound (i.e., control). BRET was measured upon addition of purified LgBiT and subsequent complementation with HiBiT genetically fused to a GPCR. The specificity of interactions was assessed through a decrease in BRET signal due to competitive displacement of the bound tracer. To further gauge the robustness of these interactions, the fold response over the control (i.e., BRETtracer/BRETcontrol) was calculated. We chose a 1.5-fold response, which translates to ≥7-fold signal over noise as the minimal threshold required to score an interaction as positive.
(§3) HiBiT-GPCR DNA constructs were diluted in 10 mM Tris pH 8 to a final concentration of 0.01 μg/μL, arrayed in 96-well plates and stored at −20 °C. For transfection, HEK293 cells were suspended in Opti-MEM (without phenol red) supplemented with 2% fetal bovine serum (Seradigm) and 100 units/mL penicillin–streptomycin (Gibco) at a final concentration of 220,000 cells/mL and dispensed into white 96-well plates at 90 μL/well. Subsequent transfections and screens were carried using an Agilent Bravo Automated Liquid Handling Platform. First, the 96-well HiBiT DNA arrays were diluted 25-fold in Opti-MEM (without serum or phenol red) to a final concentration of 0.0004 μg/μL and 20 μL of the diluted DNAs were transferred into new 96-well plates. Next, promoterless carrier DNA (1 μg/μL) was diluted 25-fold (0.04 μg/μL) and then dispensed into the diluted arrays at 20 μL/well. Following brief mixing, Viafect transfection reagent (Promega) diluted 16-fold into Opti-MEM was dispensed into the plates at 40 μL/well. After mixing by pipetting, plates were incubated for 10 min on the pipetting station deck. The DNA-transfection reagent complexes were then added to plates containing cells. To facilitate the screen, 10 μL of DNA-transfection reagent complexes were added in duplicates to the top 4 and bottom 4 rows, resulting in two identical 48-well arrays per plate. Plates with transfected cells were incubated for 18–20 h at 37 °C/5% CO2. A screen of each tracer across the entire library using two different concentrations requires duplicate plates of transfected cells. Depending on the number of tracers being screened, transfections can be scaled up using the same ratios. The next day, for each tracer, four 20× screening solutions in tracer dilution buffer (Promega) were prepared: two duplicates at final concentration of 20 μM and two duplicates at a final concentration of 2 μM. […] The four resulting solutions were diluted 4-fold in Opti-MEM without serum or phenol red to generate 5× solutions (5 µM and 0.5 µM tracer +/− 100 μM competing compound). To screen the library, a BioTek MultiFlo FX liquid dispenser was used to dispense 22.5 µL of tracer solution to the top 4 rows and 22.5 µL tracer + competing compound solution to the 4 bottom rows. Plates were briefly mixed on an orbital shaker and incubated for 1.5 h at room temperature. […] Plates were briefly mixed on an orbital shaker and incubated for 15 min to allow complementation.

ADRB3 = target: T3, ADRB3 (Homo sapiens, UniProt P13945); experiment: NanoBRET screen HiBiT-ADRB3 in HEK293; type: binding; conditions: ADRB3
T3 construct: purchased Promega (in-house HiBiT-GPCR construct library, NanoBRET)
Description: as §2, §3

OPRD1 = target: T4, OPRD1 (Homo sapiens, UniProt P41143); experiment: NanoBRET screen HiBiT-OPRD1 in HEK293; type: binding; conditions: OPRD1
T4 construct: purchased Promega (in-house HiBiT-GPCR construct library, NanoBRET)
Description: as §2, §3

OPRK1 = target: T5, OPRK1 (Homo sapiens, UniProt P41145); experiment: NanoBRET screen HiBiT-OPRK1 in HEK293; type: binding; conditions: OPRK1
T5 construct: purchased Promega (in-house HiBiT-GPCR construct library, NanoBRET)
Description: as §2, with “positive. […]. Below we highlight the screening results obtained for our exemplary fluorescent tracers based on Clozapine, Amitriptyline and AZD1283.” for “positive.”
HiBiT-GPCR DNA constructs were diluted in 10 mM Tris pH 8 to a final concentration of 0.01 μg/μL, arrayed in 96-well plates and stored at −20 °C. For transfection, HEK293 cells were suspended in Opti-MEM (without phenol red) supplemented with 2% fetal bovine serum (Seradigm) and 100 units/mL penicillin–streptomycin (Gibco) at a final concentration of 220,000 cells/mL and dispensed into white 96-well plates at 90 μL/well. Subsequent transfections and screens were carried using an Agilent Bravo Automated Liquid Handling Platform. First, the 96-well HiBiT DNA arrays were diluted 25-fold in Opti-MEM (without serum or phenol red) to a final concentration of 0.0004 μg/μL and 20 μL of the diluted DNAs were transferred into new 96-well plates. Next, promoterless carrier DNA (1 μg/μL) was diluted 25-fold (0.04 μg/μL) and then dispensed into the diluted arrays at 20 μL/well. Following brief mixing, Viafect transfection reagent (Promega) diluted 16-fold into Opti-MEM was dispensed into the plates at 40 μL/well. After mixing by pipetting, plates were incubated for 10 min on the pipetting station deck. The DNA-transfection reagent complexes were then added to plates containing cells. To facilitate the screen, 10 μL of DNA-transfection reagent complexes were added in duplicates to the top 4 and bottom 4 rows, resulting in two identical 48-well arrays per plate. Plates with transfected cells were incubated for 18–20 h at 37 °C/5% CO2. A screen of each tracer across the entire library using two different concentrations requires duplicate plates of transfected cells. Depending on the number of tracers being screened, transfections can be scaled up using the same ratios. The next day, for each tracer, four 20× screening solutions in tracer dilution buffer (Promega) were prepared: two duplicates at final concentration of 20 μM and two duplicates at a final concentration of 2 μM. A competing unmodified compound was added to one of each duplicate at a final concentration of 400 μM. The four resulting solutions were diluted 4-fold in Opti-MEM without serum or phenol red to generate 5× solutions (5 µM and 0.5 µM tracer +/− 100 μM competing compound). To screen the library, a BioTek MultiFlo FX liquid dispenser was used to dispense 22.5 µL of tracer solution to the top 4 rows and 22.5 µL tracer + competing compound solution to the 4 bottom rows. Plates were briefly mixed on an orbital shaker and incubated for 1.5 h at room temperature. […]

OPRM1 = target: T6, OPRM1 (Homo sapiens, UniProt P35372); experiment: NanoBRET screen HiBiT-OPRM1 in HEK293; type: binding; conditions: OPRM1
T6 construct: purchased Promega (in-house HiBiT-GPCR construct library, NanoBRET)
Description: as §2, §3

[3] = other tracers/Quetiapine (unmodified), 0.1μM
[4] = other tracers/Quetiapine (unmodified), 1μM
[5] = other tracers/Tolterodine (unmodified), 0.1μM
[6] = other tracers/Tolterodine (unmodified), 1μM

T5 sequence (P41145 whole entry): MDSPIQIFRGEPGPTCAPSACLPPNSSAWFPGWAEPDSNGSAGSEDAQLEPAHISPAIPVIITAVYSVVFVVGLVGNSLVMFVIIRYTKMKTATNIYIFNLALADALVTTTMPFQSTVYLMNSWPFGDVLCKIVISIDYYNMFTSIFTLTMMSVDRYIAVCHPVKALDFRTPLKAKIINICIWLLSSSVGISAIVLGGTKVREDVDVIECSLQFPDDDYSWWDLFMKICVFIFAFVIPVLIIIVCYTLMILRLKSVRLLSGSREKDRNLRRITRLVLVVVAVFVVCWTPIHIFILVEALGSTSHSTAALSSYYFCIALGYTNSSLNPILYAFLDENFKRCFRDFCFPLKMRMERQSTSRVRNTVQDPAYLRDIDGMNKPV
T3 sequence (P13945 whole entry): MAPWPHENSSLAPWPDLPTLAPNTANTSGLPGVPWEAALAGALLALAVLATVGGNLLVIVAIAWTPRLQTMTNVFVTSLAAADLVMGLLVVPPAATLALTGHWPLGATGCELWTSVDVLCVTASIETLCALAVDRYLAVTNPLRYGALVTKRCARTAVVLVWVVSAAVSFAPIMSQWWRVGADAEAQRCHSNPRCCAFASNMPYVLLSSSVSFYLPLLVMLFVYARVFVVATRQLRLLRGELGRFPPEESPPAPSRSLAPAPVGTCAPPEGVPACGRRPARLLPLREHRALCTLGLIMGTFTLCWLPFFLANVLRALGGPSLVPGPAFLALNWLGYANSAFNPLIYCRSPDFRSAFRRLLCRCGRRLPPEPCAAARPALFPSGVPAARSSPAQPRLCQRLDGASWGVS
T6 sequence (P35372 whole entry): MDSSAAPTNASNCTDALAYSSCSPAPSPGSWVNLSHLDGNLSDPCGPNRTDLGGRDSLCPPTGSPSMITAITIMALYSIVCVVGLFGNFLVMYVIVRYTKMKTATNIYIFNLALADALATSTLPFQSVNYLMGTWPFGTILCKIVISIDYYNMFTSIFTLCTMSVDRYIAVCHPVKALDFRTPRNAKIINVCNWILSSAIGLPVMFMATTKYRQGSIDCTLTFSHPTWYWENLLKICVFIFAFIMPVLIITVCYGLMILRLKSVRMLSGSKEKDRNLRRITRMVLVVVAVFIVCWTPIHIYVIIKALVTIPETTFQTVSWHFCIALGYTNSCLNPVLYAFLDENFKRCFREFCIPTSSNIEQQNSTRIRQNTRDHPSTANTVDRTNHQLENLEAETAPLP
T1 sequence (P08588 whole entry): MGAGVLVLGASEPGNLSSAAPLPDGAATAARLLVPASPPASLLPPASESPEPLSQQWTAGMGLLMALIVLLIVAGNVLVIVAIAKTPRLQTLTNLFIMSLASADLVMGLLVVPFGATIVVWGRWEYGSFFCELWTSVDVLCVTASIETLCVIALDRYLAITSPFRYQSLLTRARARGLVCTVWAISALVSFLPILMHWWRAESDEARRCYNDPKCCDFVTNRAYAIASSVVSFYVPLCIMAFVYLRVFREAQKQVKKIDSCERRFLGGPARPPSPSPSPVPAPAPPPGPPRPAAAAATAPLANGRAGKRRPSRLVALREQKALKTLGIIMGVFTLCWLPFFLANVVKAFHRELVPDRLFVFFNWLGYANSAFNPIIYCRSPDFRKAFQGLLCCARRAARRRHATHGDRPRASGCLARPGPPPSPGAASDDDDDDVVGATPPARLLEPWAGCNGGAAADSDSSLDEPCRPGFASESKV
T4 sequence (P41143 whole entry): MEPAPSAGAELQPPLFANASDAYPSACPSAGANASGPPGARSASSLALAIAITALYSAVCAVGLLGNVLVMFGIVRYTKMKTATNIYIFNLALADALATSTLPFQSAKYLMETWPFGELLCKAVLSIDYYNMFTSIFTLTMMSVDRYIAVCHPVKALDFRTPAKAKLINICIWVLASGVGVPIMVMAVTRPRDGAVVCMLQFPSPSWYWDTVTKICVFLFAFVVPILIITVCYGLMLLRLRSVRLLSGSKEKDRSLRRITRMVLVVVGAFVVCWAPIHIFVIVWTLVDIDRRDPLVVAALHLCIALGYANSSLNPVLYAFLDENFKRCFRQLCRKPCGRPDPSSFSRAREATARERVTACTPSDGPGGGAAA
T2 sequence (P07550 whole entry): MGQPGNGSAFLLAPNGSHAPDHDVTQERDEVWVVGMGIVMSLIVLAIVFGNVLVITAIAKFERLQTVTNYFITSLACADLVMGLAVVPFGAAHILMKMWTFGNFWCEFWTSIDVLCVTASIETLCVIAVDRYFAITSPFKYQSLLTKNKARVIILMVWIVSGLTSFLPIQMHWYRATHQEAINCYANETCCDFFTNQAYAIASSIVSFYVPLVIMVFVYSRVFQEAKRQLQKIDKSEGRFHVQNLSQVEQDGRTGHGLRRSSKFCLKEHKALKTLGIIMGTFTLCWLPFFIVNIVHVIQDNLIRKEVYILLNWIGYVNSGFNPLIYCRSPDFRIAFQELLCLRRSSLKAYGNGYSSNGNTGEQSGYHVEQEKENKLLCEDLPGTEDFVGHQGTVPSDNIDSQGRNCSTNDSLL

**Q.** With `N#CNC(=NCCCOc1cccc(CN2CCCCC2)c1)NCCNC(=O)c1ccc(N)cc1` [Aminopotentidine] as the compound, how does the “Interaction verified via competitive displacement of tracer” value [1] read?
**A.** verify additional interactions

**Q.** And the “Interaction verified via competitive displacement of tracer” value [2]?
**A.** verify additional interactions

**Q.** What about the “Interaction verified via competitive displacement of tracer” value (Dopamine receptors) of the same compound?
**A.** verify additional interactions

**Q.** Which “NanoBRET Fold Response” value (ADRB1; [3]) does the source give for `OCCOCCN1CCN(C2=Nc3ccccc3Sc3ccccc32)CC1` [Quetiapine (unmodified)] here?
**A.** 1.33

**Q.** And the “NanoBRET Fold Response” value (ADRB1; [4])?
**A.** 1.09

**Q.** And the “NanoBRET Fold Response” value (ADRB2; 0.1μM)?
**A.** 1.07

**Q.** And the “NanoBRET Fold Response” value (ADRB2; 1μM)?
**A.** 1.33

**Q.** And the “NanoBRET Fold Response” value (ADRB3; [3])?
**A.** 1.11

**Q.** And the “NanoBRET Fold Response” value (ADRB3; [4])?
**A.** 1.12

**Q.** What about the “NanoBRET Fold Response” value (OPRD1; [3]) of the same compound?
**A.** 1.31

**Q.** What about the “NanoBRET Fold Response” value (OPRD1; [4]) of the same compound?
**A.** 1.06

**Q.** What about the “NanoBRET Fold Response” value (OPRK1; [3]) of the same compound?
**A.** 1.76

**Q.** And the “NanoBRET Fold Response” value (OPRK1; [4])?
**A.** 0.99

**Q.** What about the “NanoBRET Fold Response” value (OPRM1; [3]) of the same compound?
**A.** 1.29

**Q.** And the “NanoBRET Fold Response” value (OPRM1; [4])?
**A.** 1.00

**Q.** What does the source list for `Cc1ccc(O)c([C@H](CCN(C(C)C)C(C)C)c2ccccc2)c1` [Tolterodine (unmodified)]?
**A.** NanoBRET Fold Response (ADRB1; [5]): 0.99; NanoBRET Fold Response (ADRB1; [6]): 1.01; NanoBRET Fold Response (ADRB3; [5]): 1.01; NanoBRET Fold Response (OPRD1; [6]): 0.91; NanoBRET Fold Response (OPRK1; [5]): 0.99; NanoBRET Fold Response (OPRK1; [6]): 1.00; NanoBRET Fold Response (OPRM1; [5]): 0.97

**Q.** What does the source list for `CCCn1c(=O)c2[nH]c(-c3ccc(OCC(=O)NCCN)cc3)nc2n(CCC)c1=O` [XAC (unmodified)]?
**A.** NanoBRET Fold Response, other tracers/XAC (unmodified) ([1]; ADRA1A, other tracer 0.1μM): 3.51; NanoBRET Fold Response, other tracers/XAC (unmodified) ([1]; ADRA1A, other tracer 1μM): 1.56; NanoBRET Fold Response, other tracers/XAC (unmodified) ([1]; ADRA1B, other tracer 0.1μM): 1.61; NanoBRET Fold Response, other tracers/XAC (unmodified) ([1]; ADRA1B, other tracer 1μM): 1.32; NanoBRET Fold Response, other tracers/XAC (unmodified) ([1]; ADRA2A, other tracer 0.1μM): 1.12; NanoBRET Fold Response, other tracers/XAC (unmodified) ([1]; ADRA2A, other tracer 1μM): 1.14; NanoBRET Fold Response, other tracers/XAC (unmodified) ([1]; ADRA2B, other tracer 0.1μM): 4.34; NanoBRET Fold Response, other tracers/XAC (unmodified) ([1]; ADRA2B, other tracer 1μM): 1.57; NanoBRET Fold Response, other tracers/XAC (unmodified) ([1]; ADRA2C, other tracer 0.1μM): 1.33

**Q.** How did the “Interaction verified via competitive displacement of tracer” value [1] turn out when `CCCn1c(=O)c2[nH]c(-c3ccc(OCC(=O)NCCN)cc3)nc2n(CCC)c1=O` [XAC, Xanthine amine congener, reference compound] was run?
**A.** additional interactions
